# Assays:
# [1] = test system: hormone-sensitive mouse mammary adenocarcinoma MXT (HS-MXT); assay: In vivo antitumor activity, mouse mammary adenocarcinoma HS-MXT
# Description: (§1) 4.—In Vivo Antitumor Activity in Combination With a Cytotoxic Agent
# (§2) The tests were carried out on models of:
# hormone-sensitive mouse mammary adenocarcinoma MXT (HS-MXT),
# (§3) in the presence or absence of cytotoxic agents such as cyclophosphamide, etoposide, doxorubicin or vincristine.
# (§4) When the MTD value of a product was determined, its in vivo antitumor activity was characterized at doses of MTD/2, MTD/4 and MTD/8 on the model of mouse mammary adenocarcinoma HS-MXT and on the model of lymphoma P 388.
# (§5) In all the examples presented below, irrespective of the model (mammary adenocarcinoma HS-MXT or lymphoma P 388), the control condition is represented by a batch of 9 mice to which is administered for 5 consecutive weeks and at a rate of 5 administrations (Monday, Tuesday, Wednesday, Thursday and Friday) per week a volume of 0.2 ml of physiological saline containing the solvent used to dissolve the various compounds of formulae (I) and (Ia) used.
# The following parameters were determined in these tests:
# (§6) i)—The survival rate of the mice
# (§7) This survival rate was calculated in the form of a ratio T/C:
# (§8) This ratio represents the average survival time of the median mouse from the batch of treated mice relative to the average survival time of the median mouse from the batch of control mice. Thus, a molecule induces a significant (P<0.05) increase in the survival of the animals when the index T/C exceeds 130%. Conversely, it has a toxic effect when this value of T/C is less than 70%.
# ii)—The tumor growth [lacuna] by measuring the area of the grafted HS-MXT or P 388 tumors twice a week (Monday and Friday). This area is calculated by multiplying the values of the largest two perpendicular axes of the tumor. The value of these axes is measured using a sliding caliper.
# The model of hormone-sensitive MXT (HS-MXT) mouse mammary adenocarcinoma grafted onto 4- to 6-week-old B6D2F1/JIco mice is derived from the milk ducts of the mammary gland (Watson C. et al. Cancer Res. 1977; 37: 3344-48).
# Compound 1 is administered alone. The first injection of the product is carried out on the seventh day post-grafting (D7) for four consecutive weeks at a rate of 5 injections per week (Monday, Tuesday, Wednesday, Thursday and Friday) and at a dose of 20 mg/kg.
# Cyclophosphamide (CPA) is administered alone. The first injection of the product is carried out on the fourteenth day post-grafting (D14) for three consecutive weeks at a rate of 3 injections per week (Monday, Wednesday and Friday) and at a dose of 10 mg/kg.
# Compound 1 is co-administered with cyclophosphamide. In this case, the first injection of compound 1 is carried out on the seventh day post-grafting (D7) for four consecutive weeks at a rate of 5 injections per week (Monday, Tuesday, Wednesday, Thursday and Friday) at a dose of 20 mg/kg, and the first injection of cyclophosphamide is carried out on the fourteenth day post-grafting (D14) for three consecutive weeks at a rate of 3 injections per week (Monday, Wednesday and Friday) at a dose of 10 mg/kg.
# Etoposide (ETO) is administered alone. The first injection of the product is carried out on the fourteenth day post-grafting (D14) for three consecutive weeks at a rate of 3 injections per week (Monday, Wednesday and Friday) and at a dose of 10 mg/kg.
# Doxorubicin (DOX) is administered alone. The first injection of the product is carried out on the fourteenth day post-grafting (D14) for three consecutive weeks at a rate of 3 injections per week (Monday, Wednesday and Friday) and at a dose of 5 mg/kg.
# Compound 1 is co-administered with etoposide.
# lymphoma P 388 = assay: In vivo antitumor activity, lymphoma P 388; set-up: species or system mouse; conditions: Table IX; subcutaneous P 388 in CDF1 mice; compound 1 or 20 40 mg/kg 5/week from D5, 5 weeks; VCR 0.63 mg/kg 3/week from D5, 3 weeks
# Description: as §1, §2, §3, §4, §5, §6, §7, §8
# 4- to 6-week-old CDF1 mice are grafted with a piece of P 388 tumor (from a tumor bank maintained in the laboratory) subcutaneously into the right flank on day D0. In order to be under conditions close to clinical reality, we waited until the 5th day post-grafting (D5) before starting the treatment. The reason for this was that, after this period of time, the subcutaneous P 388 tumors are palpable.
# Compound 1 is administered alone. The first injection of the product is carried out on the 5th day post-grafting (D5) at a rate of 5 injections per week (Monday, Tuesday, Wednesday, Thursday and Friday) for five consecutive weeks-and at a dose of 40 mg/kg.
# Compound 20 is administered alone. […]
# [2] = Table V, HS-MXT in B6D2F1/JIco mice, compound 1 20 mg/kg 5/week from D7, 4 weeks, ETO 10 mg/kg or DOX 5 mg/kg 3/week from D14, 3 weeks
Structure (SMILES),melting point,"T/C (survival) [1, 2]",other results
"O=P1(N(CCCl)CCCl)NCCCO1 (centres unmarked) [CPA, Cyclophosphamide]",,,"T/C (survival) ([1]; Table IV, HS-MXT in B6D2F1/JIco mice, compound 1 20 mg/kg 5 injections/week from D7, 4 weeks, CPA 10 mg/kg 3 injections/week from D14, 3 weeks): 122%; Tumor area, reduction (−) or increase (+) compared with control ([1]; Table VI, HS-MXT tumors, 31st day after graft, 19 administrations of compound 1 (20 mg/kg), 8 of cyclophosphamide (10 mg/kg)): −23.6%"
COc1cc(OC)c2cc(-c3ccc(OS(=O)(=O)C(F)(F)F)cc3)c(=O)n(C)c2c1 [Compound 45],144 to 145 °C,,
"Cc1ccc2[nH]c(=O)c(-c3ccccc3)cc2c1 [Compound 48, 6-Methyl-3-phenyl-1,2-dihydro-2-quinolinone]",212 to 213 °C,,
"COc1cccc2c1C(=O)c1c(O)c3c(c(O)c1C2=O)C[C@@](O)(C(=O)CO)C[C@@H]3O[C@H]1C[C@H](N)[C@H](O)[C@H](C)O1 [DOX, Doxorubicin]",,92.5%,
"COc1cc([C@@H]2c3cc4c(cc3[C@@H](O[C@@H]3O[C@@H]5CO[C@@H](C)O[C@H]5[C@H](O)[C@H]3O)[C@H]3COC(=O)[C@H]23)OCO4)cc(OC)c1O [ETO, Etoposide]",,130%,"T/C (survival) ([1]; Table VII, HS-MXT, compound 21 40 mg/kg 5/week from D7, 5 weeks, ETO 10 mg/kg 3/week from D7, 3 weeks): 124%"
"CC[C@]1(O)C[C@H]2CN(CCc3c([nH]c4ccccc34)[C@@](C(=O)OC)(c3cc4c(cc3OC)N(C=O)[C@H]3[C@@](O)(C(=O)OC)[C@H](OC(C)=O)[C@]5(CC)C=CCN6CC[C@]43[C@@H]65)C2)C1 [VCR, Vincristine, reference compound]",,,T/C (survival) (lymphoma P 388): 122%

# Reference: US6593342B1, “Pharmaceutical compositions comprising 2-quinolones” (Laboratoire L. Lafon, priority 1998, dated 2003)
